Key:
[1] = target: recombinant human FLAP protein (Homo sapiens (Human), UniProt P20292); assay: FLAP binding assay (Scintillation Proximity Assay); settings: displacement of [125I]L-691,831, membranes of sf9 cells expressing human FLAP; read-out: SPA IC50
Experimental: Compounds are assessed for the ability to bind to FLAP in a binding assay that measures compound-specific displacement of an iodinated (^125I) FLAP inhibitor via a Scintillation Proximity Assay format (adapted from S. Charleson et al., Mol. Pharmacol., 1992, 41, 873-879).
Cell pellets produced from sf9 insect cells expressing recombinant human FLAP protein are resuspended in buffer A [15 mM Tris-HCl (pH 7.5), 2 mM MgCl2, 0.3 mM EDTA, 1 mM PMSF]. The cells are lysed with a Dounce homogenizer and the material is centrifuged at 10,000×g for 10 minutes. The supernatant is then collected and centrifuged at 100,000×g for 60 minutes. To prepare membrane protein for an assay, an aliquot of the 100,000×g pellet is resuspended in 1 ml of buffer A, Dounce homogenized, and finally subjected to polytron mixing (30 seconds). Membrane protein (25 μl, 5 μg) is mixed with WGA SPA beads (Amersham) and stirred for 1 h. To an assay plate (Perkin Elmer FlexiPlate) is added 25 μl of test compound prepared in Binding buffer [100 mM Tris (pH 7.5), 140 mM NaCl, 5% glycerol, 2 mM EDTA, 0.5 mM TCEP, 0.05% Tween 20], 25 μl of [^125I]L-691,831 (an iodinated analog of MK-591, Charleson et al. Mol. Pharmacol., 41, 873-879, 1992) and finally 50 μl of the bead/protein mixture. (final concentrations: beads, 200 μg/well; protein, 5 μg/well; [^125I] probe, 0.08 nM/well (17 nCi/well). The plates are shaken for 2 h before reading on a Microbeta plate reader. Non-specific binding is determined by the addition of 10 μM cold L-691,831 compound.

[2] = tested on: synthesis of LTB4 in human whole blood; assay: human whole blood LTB4 production inhibition assay; format: cell-based; settings: heparinized human whole blood, calcimycin-stimulated, plasma LTB4; read-out: hWB IC50
Experimental: Compounds are additionally tested in a human whole blood assay to determine their ability to inhibit the synthesis of LTB4 in a cellular system. Compounds are combined with heparinized human whole blood and incubated for 15 minutes at 37° C. Calcimycin ([…], prepared in phosphate-buffered saline, pH 7.4) is then added and the mixture is incubated for another 30 minutes at 37° C. The samples are centrifuged for 5 min at low speed (1500×g) and the plasma layer is removed. Plasma LTB4 concentrations are then measured using an antibody-based homogenous time-resolved fluorescence method (CisBio, Bedford, Mass.).

recombinant human FLAP protein, sequence (P20292 whole entry): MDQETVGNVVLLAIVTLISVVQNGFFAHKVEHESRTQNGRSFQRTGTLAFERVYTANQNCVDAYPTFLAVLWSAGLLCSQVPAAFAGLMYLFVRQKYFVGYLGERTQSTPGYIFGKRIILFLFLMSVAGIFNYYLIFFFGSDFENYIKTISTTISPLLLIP

| Structure (SMILES) | IC50 [1] [nM] | IC50 [2] [nM] |
| --- | --- | --- |
| CC(C)(C)n1c(-c2ccccc2C(=O)O)nc2cc(-c3cnc(N)nc3)ccc21 [Example 1, 2-[5-(2-Amino-pyrimidin-5-yl)-1-tert-butyl-1H-benzoimidazol-2-yl]-benzoic acid] | 1400 | – |
| CC(C)(C)n1c(-c2ccccc2C(=O)NC2CC2)nc2cc(-c3cnc(N)nc3)ccc21 [Example 2, 2-[5-(2-Amino-pyrimidin-5-yl)-1-tert-butyl-1H-benzoimidazol-2-yl]-N-cyclopropyl-benzamide] | 25.2 | 2190 |
| CC(C)(C)n1c(-c2ccccc2C(=O)Nc2ccncc2)nc2cc(-c3cnc(N)nc3)ccc21 [Example 3, 2-[5-(2-Amino-pyrimidin-5-yl)-1-tert-butyl-1H-benzoimidazol-2-yl]-N-pyridin-4-yl-benzamide] | 0.91 | 763 |
| CN(C)C(=O)c1ccc(F)c(-c2nc3cc(-c4cnc(N)nc4)ccc3n2C(C)(C)C)c1 [Example 12, 3-[5-(2-Amino-pyrimidin-5-yl)-1-tert-butyl-1H-benzoimidazol-2-yl]-4-fluoro-N,N-dimethyl-benzamide] | 610 | > 5000 |
| CC(C)(C)n1c(-c2ccccc2C(N)=O)nc2cc(-c3cnc(N)nc3)ccc21 [Example 14, 2-[5-(2-Amino-pyrimidin-5-yl)-1-tert-butyl-1H-benzoimidazol-2-yl]-benzamide] | – | 1150 |
| CC(C)(C)n1c(-c2cc(C(=O)O)ccc2F)nc2cc(-c3cnc(N)nc3)ccc21 [Example 15, 3-[5-(2-Amino-pyrimidin-5-yl)-1-tert-butyl-1H-benzoimidazol-2-yl]-4-fluoro-benzoic acid] | 220 | > 5000 |
| CC(C)(C)n1c(-c2cccc(C(=O)O)c2)nc2cc(-c3cnc(N)nc3)ccc21 [Example 16, 3-[5-(2-Amino-pyrimidin-5-yl)-1-tert-butyl-1H-benzoimidazol-2-yl]-benzoic acid] | 645 | – |
| COC(=O)c1ccccc1-c1nc2cc(-c3cnc(N)nc3)ccc2n1C(C)(C)C [Example 17, 2-[5-(2-Amino-pyrimidin-5-yl)-1-tert-butyl-1H-benzoimidazol-2-yl]-benzoic acid methyl ester] | 22 | – |
| CC(C)(C)n1c(-c2ccccc2C(=O)NCC2CCCO2)nc2cc(-c3cnc(N)nc3)ccc21 (stereo not shown) [Example 18, 2-[5-(2-Amino-pyrimidin-5-yl)-1-tert-butyl-1H-benzoimidazol-2-yl]-N-(tetrahydro-furan-2-ylmethyl)-benzamide] | 18.8 | 2440 |
| COCCNC(=O)c1ccccc1-c1nc2cc(-c3cnc(N)nc3)ccc2n1C(C)(C)C [Example 19, 2-[5-(2-Amino-pyrimidin-5-yl)-1-tert-butyl-1H-benzoimidazol-2-yl]-N-(2-methoxy-ethyl)-benzamide] | 43.8 | 2870 |
| CC(C)(C)n1c(-c2ccccc2C(=O)Nc2ccccn2)nc2cc(-c3cnc(N)nc3)ccc21 [Example 20, 2-[5-(2-Amino-pyrimidin-5-yl)-1-tert-butyl-1H-benzoimidazol-2-yl]-N-pyridin-2-yl-benzamide] | 2.2 | 2700 |
| CC(C)(C)NC(=O)c1ccccc1-c1nc2cc(-c3cnc(N)nc3)ccc2n1C(C)(C)C [Example 21, 2-[5-(2-Amino-pyrimidin-5-yl)-1-tert-butyl-1H-benzoimidazol-2-yl]-N-tert-butyl-benzamide] | 14.7 | 3290 |
| CC(C)(C)n1c(-c2ccccc2C(=O)Nc2cccnc2)nc2cc(-c3cnc(N)nc3)ccc21 [Example 22, 2-[5-(2-Amino-pyrimidin-5-yl)-1-tert-butyl-1H-benzoimidazol-2-yl]-N-pyridin-3-yl-benzamide] | 1.5 | 2250 |
| CN(C(=O)c1ccccc1-c1nc2cc(-c3cnc(N)nc3)ccc2n1C(C)(C)C)c1ccccn1 [Example 27, 2-[5-(2-Amino-pyrimidin-5-yl)-1-tert-butyl-1H-benzoimidazol-2-yl]-N-methyl-N-pyridin-2-yl-benzamide] | 180 | – |
| CC(C)(C)n1c(-c2cc(F)ccc2C(=O)Nc2cccnc2)nc2cc(-c3cnc(N)nc3)ccc21 [Example 31, 2-[5-(2-Amino-pyrimidin-5-yl)-1-tert-butyl-1H-benzoimidazol-2-yl]-4-fluoro-N-pyridin-3-yl-benzamide] | – | 1950 |
| CC(C)(C)n1c(-c2cc(F)ccc2C(=O)NCc2cccnc2)nc2cc(-c3cnc(N)nc3)ccc21 [Example 32, 2-[5-(2-Amino-pyrimidin-5-yl)-1-tert-butyl-1H-benzoimidazol-2-yl]-4-fluoro-N-pyridin-3-ylmethyl-benzamide] | – | 939 |
| COc1cncc(-c2ccc3c(c2)nc(-c2cccc(C(N)=O)c2)n3C(C)(C)C)c1 [Example 35, 3-[1-tert-Butyl-5-(5-methoxy-pyridin-3-yl)-1H-benzoimidazol-2-yl]-benzamide] | 4700 | – |

Results, then the compound that gave them:

| IC50 [1] [nM] | IC50 [2] [nM] | Structure (SMILES) |
| --- | --- | --- |
| 11.4 | 433 | CNC(=O)c1ccccc1-c1nc2cc(-c3cnc(N)nc3)ccc2n1C(C)(C)C [Example 4, 2-[5-(2-Amino-pyrimidin-5-yl)-1-tert-butyl-1H-benzoimidazol-2-yl]-N-methyl-benzamide] |
| – | 357 | CNC(=O)c1cc(F)c(F)cc1-c1nc2cc(-c3cnc(N)nc3)ccc2n1C(C)(C)C [Example 5, 2-[5-(2-Amino-pyrimidin-5-yl)-1-tert-butyl-1H-benzoimidazol-2-yl]-4,5-difluoro-N-methyl-benzamide] |
| 5.07 | 130 | CNC(=O)c1ccc(F)cc1-c1nc2cc(-c3cnc(N)nc3)ccc2n1C(C)(C)C [Example 6, 2-[5-(2-Amino-pyrimidin-5-yl)-1-tert-butyl-1H-benzoimidazol-2-yl]-4-fluoro-N-methyl-benzamide] |
| 21.9 | 414 | CNC(=O)c1cc(OC)ccc1-c1nc2cc(-c3cnc(N)nc3)ccc2n1C(C)(C)C [Example 7, 2-[5-(2-Amino-pyrimidin-5-yl)-1-tert-butyl-1H-benzoimidazol-2-yl]-5-methoxy-N-methyl-benzamide] |
| 7.4 | 94 | CNC(=O)c1ccc(C#N)cc1-c1nc2cc(-c3cnc(N)nc3)ccc2n1C(C)(C)C [Example 8, 2-[5-(2-Amino-pyrimidin-5-yl)-1-tert-butyl-1H-benzoimidazol-2-yl]-4-cyano-N-methyl-benzamide] |
| 111 | > 5000 | CNC(=O)c1ccc(-c2nn[nH]n2)cc1-c1nc2cc(-c3cnc(N)nc3)ccc2n1C(C)(C)C [Example 9, 2-[5-(2-Amino-pyrimidin-5-yl)-1-tert-butyl-1H-benzoimidazol-2-yl]-N-methyl-4-(2H-tetrazol-5-yl)-benzamide] |
| 6.09 | – | CC(C)(C)n1c(-c2cc(C#N)ccc2C(=O)NC#N)nc2cc(-c3cnc(N)nc3)ccc21 [Example 10, 2-[5-(2-Amino-pyrimidin-5-yl)-1-tert-butyl-1H-benzoimidazol-2-yl]-4-cyano-N-cyano-benzamide] |
| 55.6 | – | CC(C)(C)n1c(-c2cc(C#N)ccc2C(=O)NS(C)(=O)=O)nc2cc(-c3cnc(N)nc3)ccc21 [Example 11, N-{2-[5-(2-Amino-pyrimidin-5-yl)-1-tert-butyl-1H-benzoimidazol-2-yl]-4-cyano-benzoyl}-methanesulfonamide] |
| – | 413 | CCNC(=O)c1ccc(F)cc1-c1nc2cc(-c3cnc(N)nc3)ccc2n1C(C)(C)C [Example 30, 2-[5-(2-Amino-pyrimidin-5-yl)-1-tert-butyl-1H-benzoimidazol-2-yl]-N-ethyl-4-fluoro-benzamide] |

— patent US8829200B2, “Benzimidazole inhibitors of leukotriene production” (Boehringer Ingelheim International GmbH, priority 2010, dated 2014)
